Legend:
[1] = tested on: type II iodothyronine deiodinase (Dio2); test: Microarray gene expression, mouse intestine: Dio2; type: in vivo; settings: diet 1 ppm Se, vs selenium deficient
Text: (§1) Animal Care. Male C57BL/6J mice were housed singly and started on the experimental diets described below immediately after weaning (21 days of age). The mice were maintained in the Shared Aging Rodent Facility at the William S. Middleton Memorial Veterans Administration Medical Center (Madison, Wis.). Temperature and humidity were maintained at constant levels. Room light was controlled to provide 12-hr cycles of light and dark.
(§2) Experimental diets were created by Harlan Teklad (Madison, Wis.). Selenium content of the diets was determined by Covance Inc. (Madison, Wis.). Five (5) animals were included in each of the following treatment groups: a diet deficient in selenium (SD); a diet supplemented with selenomethionine (SM, obtained from Sigma, St. Louis, Mo.) such that the final selenium content of the diet was one (1) part per million; a diet supplemented with sodium selenite (SS, Sigma) such that the final concentration of selenium in this diet was one (1) part per million; or a diet supplemented with the yeast selenium SEL-PLEX (SP, Alltech, Lexington, Ky.), such that the final concentration of selenium in this diet was one (1) part per million. SEL-PLEX. […]
(§3) Tissue sample preparation and microarray analysis. […] For intestinal expression studies, the intestine was flushed twice with saline solution and small intestine was measured and divided in three equal segments. […]

[2] = Body weight of mice on selenium diets; type: in vivo, mouse; settings: mouse, in vivo
Text: as §1
Experimental diets were created by Harlan Teklad (Madison, Wis.). Selenium content of the diets was determined by Covance Inc. (Madison, Wis.). […]
Thus, it was an object of the present invention to determine whether compositions and methods of the present invention could alter the expression levels (e.g., mRNA levels) of various genes. One group of genes analyzed were genes classically associated with selenium. As described above, the expression levels of genes were analyzed between mice with and without dietary selenium, or, between mice fed different sources of selenium) (See, e.g., Table 1, below).

[3] = tested on: Type 1 iodothyronine deiodinase; test: Microarray gene expression, mouse intestine: Type 1 iodothyronine deiodinase; type: in vivo; settings: diet 1 ppm Se, vs selenium deficient
Text: as §1, §2, §3

[4] = tested on: Complement component 1, q subcomponent, gamma polypeptide, C1qg; test: Microarray gene expression, mouse cerebral cortex: C1qg; type: in vivo; settings: diet 1 ppm Se, vs selenium deficient, * p<0.01
Text: as §1, §2, §3

Prohibitin (Phb) = test: Microarray gene expression, mouse intestine: Phb; type: in vivo; settings: diet 1 ppm Se, vs selenium deficient
Text: as §1, §2, §3

[5] = tested on: Growth arrest and DNA-damage-inducible 45 gamma (Gadd45g); test: Microarray gene expression, mouse intestine: Gadd45g; type: in vivo; settings: diet 1 ppm Se, vs selenium deficient, negative = down
Text: as §1
Experimental diets were created by Harlan Teklad (Madison, Wis.). Selenium content of the diets was determined by Covance Inc. (Madison, Wis.). Five (5) animals were included in each of the following treatment groups: a diet deficient in selenium (SD); a diet supplemented with selenomethionine (SM, obtained from Sigma, St. Louis, Mo.) such that the final selenium content of the diet was one (1) part per million; a diet supplemented with sodium selenite (SS, Sigma) such that the final concentration of selenium in this diet was one (1) part per million; or a diet supplemented with the yeast selenium SEL-PLEX (SP, Alltech, Lexington, Ky.), such that the final concentration of selenium in this diet was one (1) part per million. SEL-PLEX. Mice were provided with water and their respective diet ad libitum for 100 days. Diets were stored at the dark at 4° C. and fresh diet was added to feeder twice weekly.
Tissue sample preparation and microarray analysis. Mice were killed at 100 days of age by cervical dislocation. For intestinal expression studies, the intestine was flushed twice with saline solution and small intestine was measured and divided in three equal segments. A 3-cm region of the middle segment of the small intestine corresponding to the jejunum (˜300 mg of tissue) was cut and rinsed again with physiological saline to completely remove contents, flash frozen in liquid nitrogen and stored at −80° C. For brain (e.g., cerebral cortex) studies, the cerebral cortex was separated from the surrounding brain tissue and was flash frozen in liquid nitrogen and stored at −80° C. […]

Glutathione Peroxidase 3 = test: Microarray gene expression, mouse intestine: Glutathione Peroxidase 3; type: in vivo; settings: diet 1 ppm Se, vs selenium deficient, all p < 0.01
Text: as §1, §2, §3

SelR (Selenoprotein X1) = test: Microarray gene expression, mouse intestine: SelR; type: in vivo; settings: diet 1 ppm Se, vs selenium deficient
Text: as §1, §2, §3

Selenoprotein W (SelW) = test: Microarray gene expression, mouse intestine: SelW; type: in vivo; settings: diet 1 ppm Se, vs selenium deficient
Text: as §1, §2, §3

Glutathione Peroxidase 1 = test: Microarray gene expression, mouse intestine: Glutathione Peroxidase 1; type: in vivo; settings: diet 1 ppm Se, vs selenium deficient, all p < 0.01
Text: as §1, §2, §3

Neurogenin 3 (Neurog3) = test: Microarray gene expression, mouse intestine: Neurog3; type: in vivo; settings: diet 1 ppm Se, vs selenium deficient
Text: as §1, §2, §3

[6] = tested on: transforming growth factor beta 2 (TGF-β2); test: Microarray gene expression, mouse intestine: TGF-β2; type: in vivo; settings: diet 1 ppm Se, vs controls
Text: as §1, §2, §3

[7] = tested on: sprouty homolog 2 gene (Spry2); test: Microarray gene expression, mouse intestine: Spry2; type: in vivo; settings: diet 1 ppm Se, vs Se-deficient controls
Text: as §1, §2, §3

selenoprotein N1 (Sepn1) = test: Microarray gene expression, mouse intestine: Sepn1; type: in vivo; settings: diet 1 ppm Se, vs selenium deficient
Text: as §1, §2, §3

[8] = tested on: LIM homeobox protein 8 gene (Lhx8); test: Microarray gene expression, mouse intestine: Lhx8; type: in vivo; settings: diet 1 ppm Se, vs selenium deficient
Text: as §1, §2, §3

CORS-26 = test: Microarray gene expression, mouse cerebral cortex: CORS-26; type: in vivo; settings: diet 1 ppm Se, vs selenium deficient
Text: as §1, §2, §3

Glyoxalase 1 (Glo1) = test: Microarray gene expression, mouse intestine: Glo1; type: in vivo; settings: diet 1 ppm Se, vs selenium deficient
Text: as §1, §2, §3

With `C[Se]CC[C@H](N)C(=O)O` [SeM, selenomethionine] the “expression of Dio2, fold down-regulation” value [1] was “no ability to alter the expression levels”, the “body weights of mice” value [2] was “No significant differences” and the “fold increase of expression level of Type 1 iodothyronine deiodinase” value [3] was 2.0 fold. The “FC (fold change) expression of C1qg” value [4] was 1.0 fold, the “expression of Prohibitin (Phb), fold upregulated” value (Prohibitin (Phb)) was 1.6 fold and the “FC (fold change) expression of Gadd45g” value [5] was “decreased expression”. The “FC (fold change) expression of Gadd45g” value ([5]; listed as SM) was −1.5 fold, the “fold change in expression of Glutathione Peroxidase 3” value (Glutathione Peroxidase 3) was 4.6 fold and the “expression of SelR, fold upregulated” value (SelR (Selenoprotein X1)) was “not significantly affected”. For the same molecule, the “expression of Selenoprotein W (SelW), fold upregulated” value (Selenoprotein W (SelW)) was “not significantly altered”, the “fold change in expression of Glutathione Peroxidase 1” value (Glutathione Peroxidase 1) was 4.9 fold and the “Neurog3 expression, fold upregulated” value (Neurogenin 3 (Neurog3)) was “no significant alteration”. For the same molecule, the “expression of TGF-β2 (printed TGF-β), fold upregulated” value [6] was “not altered”, the “Spry2 gene expression, fold reduction” value [7] was “no alteration in expression levels” and the “expression of selenoprotein N1 (Sepn1), fold increased” value (selenoprotein N1 (Sepn1)) was “not significantly affected”. The “expression of Lhx8, fold upregulated” value [8] was “not significantly different”, the “expression of CORS-26, fold reduction” value (CORS-26) was “no alteration in expression levels” and the “expression of Glo1, fold reduction” value (Glyoxalase 1 (Glo1)) was “not significantly affected”.
